Experimental data reported in patent US9630961B2, “Arginine methyltransferase inhibitors and uses thereof” (Epizyme, Inc., priority 2013, dated 2017).

target: T1, PRMT1 (Homo sapiens, UniProt Q99873); experiment: PRMT1 Biochemical Assay (3H-SAM Flashplate, peptide substrate); conditions: 30 min preincubation, room temperature
T1 construct: GST-tagged PRMT1; made in house; host or cells: High Five insect cells (baculovirus)
Source text: S-adenosylmethionine (SAM), S-adenosylhomocysteine (SAH), bicine, Tween20, dimethylsulfoxide (DMSO), bovine skin gelatin (BSG), and Tris(2-carboxyethyl)phosphine hydrochloride solution (TCEP) were purchased from Sigma-Aldrich at the highest level of purity possible. ^3H-SAM was purchase from American Radiolabeled Chemicals with a specific activity of 80 Ci/mmol. 384-well streptavidin Flashplates were purchased from PerkinElmer.
Peptide representative of human histone H4 residues 36-50 was synthesized with an N-terminal linker-affinity tag motif and a C-terminal amide cap by 21st Century Biochemicals. The peptide was purified by high-performance liquid chromatography (HPLC) to greater than 95% purity and confirmed by liquid chromatography mass spectrometry (LC-MS). The sequence was Biot-Ahx-[…]-amide (SEQ ID NO.: 1).
Full-length human PRMT1 isoform 1 (NM_001536.5) transcript clone was amplified from an HEK 293 cDNA library, incorporating flanking 5′ sequence encoding a FLAG tag ([…]) (SEQ ID NO.:2) fused directly to Met 1 of PRMT1. The amplified gene was subcloned into pFastBacI (Life Technologies) modified to encode an N-terminal GST tag and a TEV cleavage sequence ([…] […] […] […]) (SEQ ID NO.:3) fused to Asp of the Flag tag of PRMT1.
Recombinant baculovirus were generated according to Bac-to-Bac kit instructions (Life Technologies). Protein over-expression was accomplished by infecting exponentially growing High Five insect cell culture at 1.5×10^6 cell/ml with 1:100 ratio of virus. Infections were carried out at 27° C. for 48 hours, harvested by centrifugation, and stored at −80° C. for purification.
General Procedure for PRMT1 Enzyme Assays on Peptide Substrates.
The assays were all performed in a buffer consisting of 20 mM Bicine (pH=7.6), 1 mM TCEP, 0.005% BSG, and 0.002% Tween 20, prepared on the day of use. Compounds in 100% DMSO (1 ul) were spotted into a polypropylene 384-well V-bottom plates (Greiner) using a Platemate Plus outfitted with a 384-channel head (Thermo Scientific). DMSO (1 ul) was added to Columns 11, 12, 23, 24, rows A-H for the maximum signal control and 1 ul of SAH, a known product and inhibitor of PRMT1, was added to columns 11, 12, 23, 24, rows I-P for the minimum signal control. A cocktail (40 ul) containing the PRMT1 enzyme was added by Multidrop Combi (Thermo-Fisher). The compounds were allowed to incubate with PRMT1 for 30 min at room temperature, then a cocktail (10 ul) containing SAM and peptide was added to initiate the reaction (final volume=51 ul). The final concentrations of the components were as follows: PRMT1 was 0.5 nM, ^3H-SAM was 200 nM, non-radiolabeled SAM was 1.5 uM, peptide was 20 nM, SAH in the minimum signal control wells was 1 mM, and the DMSO concentration was 2%. The assays were stopped by the addition of non-radiolabeled SAM (10 ul) to a final concentration of 300 uM, which dilutes the ^3H-SAM to a level where its incorporation into the peptide substrate is no longer detectable. 50 ul of the reaction in the 384-well polypropylene plate was then transferred to a 384-well Flashplate and the biotinylated peptides were allowed to bind to the streptavidin surface for at least 1 hour before being washed once with 0.1% Tween20 in a Biotek ELx405 plate washer. The plates were then read in a PerkinElmer TopCount plate reader to measure the quantity of ^3H-labeled peptide bound to the Flashplate surface, measured as disintegrations per minute (dpm) or alternatively, referred to as counts per minute (cpm).
Where dpm=disintegrations per minute, cmpd=signal in assay well, and min and max are the respective minimum and maximum signal controls.
Where top and bottom are the normally allowed to float, but may be fixed at 100 or 0 respectively in a 3-parameter fit. The Hill Coefficient normally allowed to float but may also be fixed at 1 in a 3-parameter fit. Y is the % inhibition and X is the compound concentration.

T1 sequence (Q99873 with tags, fused parts or gaps): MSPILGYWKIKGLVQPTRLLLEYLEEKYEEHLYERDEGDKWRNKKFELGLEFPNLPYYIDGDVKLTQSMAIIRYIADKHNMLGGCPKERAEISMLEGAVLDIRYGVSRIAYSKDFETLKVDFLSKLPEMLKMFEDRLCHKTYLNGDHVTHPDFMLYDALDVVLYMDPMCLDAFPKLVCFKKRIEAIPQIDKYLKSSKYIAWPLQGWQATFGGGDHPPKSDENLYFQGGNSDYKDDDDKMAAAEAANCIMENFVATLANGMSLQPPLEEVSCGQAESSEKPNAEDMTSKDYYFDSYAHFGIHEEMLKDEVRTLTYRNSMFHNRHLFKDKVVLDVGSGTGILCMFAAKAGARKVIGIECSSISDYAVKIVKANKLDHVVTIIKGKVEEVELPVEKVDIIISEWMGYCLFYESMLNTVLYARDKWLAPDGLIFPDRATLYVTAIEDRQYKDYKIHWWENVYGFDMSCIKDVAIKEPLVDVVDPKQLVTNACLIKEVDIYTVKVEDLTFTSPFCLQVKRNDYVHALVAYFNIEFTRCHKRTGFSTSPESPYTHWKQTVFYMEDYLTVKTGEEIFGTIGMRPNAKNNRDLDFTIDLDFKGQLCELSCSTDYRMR

| Compound | IC50 [nM] |
| --- | --- |
| CN(CCN)Cc1c[nH]nc1-c1ccco1 [Compound 6] | 101 to 1000 |
| CN(CCN)Cc1c[nH]nc1-c1cnc2[nH]ccc2c1 [Compound 13] | ≤ 100 |
| CN(CCN)Cc1c[nH]nc1-c1cnc(C2CC2)nc1 [Compound 28] | 101 to 1000 |
| CN(CCN)Cc1c[nH]nc1-c1ccc2nccn2c1 [Compound 21, N^1-((3-(imidazo[1,2-a]pyridin-6-yl)-1H-pyrazol-4-yl)methyl)-N^1-methylethane-1,2-diamine] | ≤ 100 |
| Cc1n[nH]c(C)c1-c1n[nH]cc1CN(C)CCN [Compound 25] | ≥ 10000 |
| CN(CCN)Cc1c[nH]nc1-c1cnn(-c2ccccc2)c1 [Compound 17] | ≤ 100 |
| CN(CCN)Cc1c[nH]nc1-c1ccc2cnn(C)c2c1 [Compound 19, N^1-methyl-N^1-((3-(1-methyl-1H-indazol-6-yl)-1H-pyrazol-4-yl)methyl)ethane-1,2-diamine] | ≤ 100 |
| CN(CCN)Cc1c[nH]nc1-c1ccnn1C [Compound 15] | 1010 to 3000 |
| Cc1noc(C)c1-c1n[nH]cc1CN(C)CCN [Compound 10] | ≥ 10000 |
| CCn1cc(-c2n[nH]cc2CN(C)CCN)cn1 [Compound 16] | ≤ 100 |
| CN(CCN)Cc1c[nH]nc1-c1cccc2[nH]ncc12 [Compound 30] | 101 to 1000 |
| CN(CCN)Cc1c[nH]nc1-c1ccsc1 [Compound 3] | 101 to 1000 |
| CC(C)n1cc(-c2n[nH]cc2CN(C)CCN)cn1 [Compound 22] | ≤ 100 |
| CN(CCN)Cc1c[nH]nc1-c1ccc2[nH]ncc2c1 [Compound 27, N^1-((3-(1H-indazol-5-yl)-1H-pyrazol-4-yl)methyl)-N^1-methylethane-1,2-diamine] | ≤ 100 |
| CN(CCN)Cc1c[nH]nc1-c1ccoc1 [Compound 7] | 101 to 1000 |
| CC(C)Cn1cc(-c2n[nH]cc2CN(C)CCN)cn1 [Compound 23, N^1-((2′-isobutyl-3,4′-bi(1H-pyrazol)-4-yl)methyl)-N^1-methylethane-1,2-diamine] | ≤ 100 |
| COc1ncc(-c2n[nH]cc2CN(C)CCN)cn1 [Compound 11] | 101 to 1000 |
| CN(CCN)Cc1c[nH]nc1-c1ccc2ncnn2c1 [Compound 20] | ≤ 100 |
| CN(CCN)Cc1c[nH]nc1-c1cn[nH]c1 [Compound 12] | 101 to 1000 |
| CN(CCN)Cc1c[nH]nc1-c1cnn(CCO)c1 [Compound 18] | 101 to 1000 |
| CN(CCN)Cc1c[nH]nc1-c1cnn(C)c1 [Compound 8] | 101 to 1000 |
| CN(CCN)Cc1c[nH]nc1-c1ccc[nH]1 [Compound 29] | 1010 to 3000 |
| CN(CCN)Cc1c[nH]nc1-c1cncnc1 [Compound 4] | 101 to 1000 |
| CN(CCN)Cc1c[nH]nc1-c1cc[nH]n1 [Compound 14] | 1010 to 3000 |
| CN(CCN)Cc1c[nH]nc1-c1cccs1 [Compound 5] | 101 to 1000 |
| CN(CCN)Cc1c[nH]nc1-c1cnn(Cc2ccccc2)c1 [Compound 24, N^1-((1′-benzyl-3,4′-bi(1H-pyrazol)-4-yl)methyl)-N^1-methylethane-1,2-diamine] | ≤ 100 |
| CN(CCN)Cc1c[nH]nc1-c1ccc2scnc2c1 [Compound 9] | ≤ 100 |
